Data as given in patent US12269803B2, “Krüppel-like factor 15 (KLF15) small molecule agonists in kidney disease” (United States Government as represented by the Department …, priority 2020, dated 2025).
In brackets after ≈: the same amount, converted by molar mass. Entries after “also recorded” stand apart in the source; their conditions may differ.

Assays:
[1] = system: human podocytes; test: Toxicity to human podocytes in primary screening assay (Renilla, cell viability); assay type: cell-based; settings: 1 μM, 24 hr
Procedure: (§1) After the synthesis of these novel analogues, a primary screening assay was conducted.

[2] = system: KLF15 reporter; test: KLF15 reporter activity in LPS-treated human podocytes (podocyte stress model); assay type: cell-based
Procedure: (§2) FIG. 10A-D show representative data illustrating the dose-response curve and EC50 (FIG. 10A), KLF15 reporter activity (FIG. 10B), and Renilla activity (cell viability) (FIG. 10C) in LPS-treated HP, and the therapeutic efficacy in abrogating albuminuria (biomarker of kidney disease) in LPS-treated mice (FIG. 10D).
as §1

[3] = system: human podocytes; test: Podocyte survival (Renilla, cell viability) after LPS treatment; assay type: cell-based; settings: LPS-treated human podocytes
Procedure: as §2, §1

[4] = system: KLF15 promoter; test: KLF15 reporter human podocyte assay (HTS, dose-response, primary screening); assay type: cell-based; settings: for KLF15 reporter activity, primary screening assay: 1 μM, 24 hr, vs DMSO; for maximal KLF15 reporter activity: dose escalation, at similar concentrations to DEX; for EC50: dose-response curve, human podocytes, luciferase/renilla
Procedure: A stable reporter assay directed at KLF15 promoter region (4.3 kb region) was generated in human podocytes, a fragment of human KLF15 promoter upstream of the start codon, by amplifying and subcloning it into the firefly luciferase reporter plasmid (co-transfection with renilla to serve as internal controls). KLF15 promoter activity is measured as a ratio of luciferase to renilla activity. Using this reporter cell line, a cell-based HTS assay was developed using recently reported cell-seeding methodology specific to cultured podocytes (16).

[5] = system: human liver microsomes; test: Stability in human liver microsomes
Procedure: Mixed-gender human liver microsomes (Lot #1010420) were purchased from XenoTech. The reaction mixture, minus NADPH, was prepared as described below. […] The control compound, testosterone, was run simultaneously with the lead compounds in a separate reaction. The reaction mixture (without cofactor) was equilibrated in a shaking water bath at 37° C. for 3 minutes. The reaction was initiated by the addition of the cofactor, and the mixture was incubated in a shaking water bath at 37° C. Aliquots (100 μL) were withdrawn at 0, 10, 20, 30, and 60 minutes. Each lead compound and testosterone samples were immediately combined with 400 μL of ice-cold 50/50 acetonitrile (ACN)/H2O containing 0.1% formic acid and internal standard to terminate the reaction. The samples were then mixed and centrifuged to precipitate proteins. All samples were assayed by LC-MS/MS using electrospray ionization. The peak area response ratio (PARR) to internal standard was compared to the PARR at time 0 to determine the percent remaining at each time point. Half-lives and clearance were calculated using GraphPad software, fitting to a single-phase exponential decay equation.

[6] = system: KLF15 promoter; test: KLF15 promoter activity in human podocytes, KLF15 agonist combined with dexamethasone; assay type: cell-based; settings: for KLF15 promoter activity, single agent: alone (DEX 1 μM), vs DMSO-treated human podocytes; for KLF15 promoter activity, combination with DEX: vs DEX 1 μM
[7] = system: Caco-2 cells (clone C2BBe1); test: Caco-2 permeability; assay type: in vitro ADME; settings: for Papp AVG / Papp R1 / Recovery: 5 μM, 120 minutes; for Efflux Ratio / Significant Efflux: Caco-2; for Absorption Potential Classification: Caco-2, from Papp (A-to-B)
Procedure: Caco-2 cells (clone C2BBe1) were obtained from American Type Culture Collection (Manassas, VA). Cell monolayers were grown to confluence on collagen-coated, microporous membranes in 12-well assay plates. Details of the plates and their certification are shown below. The permeability assay buffer was Hanks' balanced salt solution containing 10 mM HEPES and 15 mM glucose at a pH of 7.4. The buffer in the receiver chamber also contained 1% bovine serum albumin. The dosing solution concentration was 5 μM of lead compound in the assay buffer. Cell monolayers were dosed on the apical side (A-to-B) or basolateral side (B-to-A) and incubated at 37° C. with 5% CO2 in a humidified incubator. Samples were taken from the donor and receiver chambers at 120 minutes. Each determination was performed in duplicate. The flux of lucifer yellow was also measured post-experimentally for each monolayer to ensure no damage was inflicted to the cell monolayers during the flux period. […] The apparent permeability (Papp) and percent recovery were calculated and provided.

[8] = Equilibrium solubility in aqueous buffers; assay type: physicochemical
Procedure: The pH 2.0 buffer was prepared by combining 50 mL of 0.2 M KCl with 150 mL of H2O, and then adjusting to pH 2.0 with 10 N HCl. […] The pH 7.4 buffer was prepared by combining 50 mL of 0.2 M KH2PO4 with 150 mL of H2O, and then adjusting to pH 7.4 with 10 N NaOH. At least 0.3 mg of powder for each lead compound was combined with 1 mL of each buffer to make a ≥0.3 mg/mL mixture. These samples were shaken on a Thermomixer® overnight at room temperature. The samples were then centrifuged for 10 minutes at 14,000 rpm. The supernatant was sampled and diluted in duplicate 10-, 100-, 1,000-, and 10,000-fold into a mixture of 1:1 buffer:acetonitrile (ACN) prior to analysis. […] Standard concentrations ranged from 1.0 μM to 0.3 nM.

[9] = system: LPS-treated mice; test: LPS-induced albuminuria murine model; assay type: in vivo; settings: C57BL/6 mice, LPS 10 μg/g, subcutaneous minipump 3.5 μg/day for 48 hours, vs DMSO
Procedure: Referring to FIG. 10D, C57BL/6 mice were treated with lipopolysaccharide (LPS) at dose of 10 μg/g in two divided doses 24 hours apart intraperitoneally to induce podocyte injury and albuminuria.

[10] = Stability in pH 7.4 phosphate buffer; assay type: physicochemical; settings: 37° C., 1 μM
Procedure: Studies were carried out in pH 7.4 phosphate buffer. The buffer was prepared by combining 50 mL of 0.2 M KH2PO4 with 150 mL of H2O, and then adjusting to pH 7.4 with 10 N NaOH. The buffer was adjusted to pH 7.4 prior to initiating the experiments. […] Aliquots of the DMSO solutions were dosed into 0.5 mL of matrix, which had been pre-warmed to 37° C., at a final lead compound concentration of 1 μM. Individual tubes were dosed for each timepoint. The vials were kept in a benchtop Thermomixer for the duration of the experiment. At each time point (0, 30, 60, and 120 minutes), an equal volume of acetonitrile was added to the appropriate tubes. Samples were stored at 4° C. until the end of the experiment. After the final time point was sampled, the plate was mixed and then centrifuged at 3,000 rpm for 10 minutes. Aliquots of the supernatant were removed, diluted 1:1 into distilled water, and analyzed by LC-MS/MS.

[11] = pH 2, room temperature overnight
[12] = pH 4, room temperature overnight
[13] = pH 7.4, room temperature overnight
[14] = human liver microsomes, 1 μM, 37° C.
[15] = human liver microsomes, Clint = k/P

Row | SMILES | toxicity to human podocytes [1] | KLF15 reporter activity after LPS treatment [2] | podocyte survival after LPS treatment [3] | KLF15 reporter activity, primary screening assay [4] | maximal KLF15 reporter activity [4] | KLF15 promoter activity, single agent [6] | KLF15 promoter activity, combination with DEX ([6]; compound 0.5 μM + DEX 0.5 μM) | Papp AVG ([7]; A-to-B) | Papp R1 ([7]; A-to-B) | Recovery ([7]; A-to-B) [%] | Papp AVG ([7]; B-to-A) | Papp R1 ([7]; B-to-A) | Recovery ([7]; B-to-A) [%] | Efflux Ratio [7] | Significant Efflux [7] | Absorption Potential Classification [7] | Solubility AVG [8, 11] [µM] | Solubility R1 [8, 11] [µM] | Solubility AVG [8, 12] [µM] | Solubility R1 [8, 12] [µM] | also measured
1 | CSc1ccc(NC(=O)Nc2ccc(B3OC(C)(C)C(C)(C)O3)cc2)cc1 [BT412] | no observed toxicity | improved KLF15 reporter activity | improved; also recorded: improve podocyte survival | significantly induced KLF15 reporter activity | higher maximal KLF15 reporter activity | – | – | – | – | – | – | – | – | – | – | – | – | – | – | – | –
2 | CSc1ccc(NC(=O)c2ccc(O)cc2)cc1 [BT501] | no observed toxicity | – | improve podocyte survival | significantly induced KLF15 reporter activity | higher maximal KLF15 reporter activity | significantly induced KLF15 promoter activity | synergistic effect | 35.5 10^−6 cm/s | 32.5 10^−6 cm/s | 66.7 | 35 10^−6 cm/s | 32.5 10^−6 cm/s | 81.7 | 0.987 | No (Significant Efflux: ER ≥ 2.0 and Papp (B-to-A) ≥ 1.0 × 10^−6 cm/s) | High (Papp (A-to-B) ≥ 1.0 × 10^−6 cm/s: High) | 97.7 (≈ 25.3 µg/mL) | 99.7 (≈ 25.9 µg/mL) | 153 (≈ 39.7 µg/mL) | 157 (≈ 40.7 µg/mL) | CLint (intrinsic clearance) ([5]; human, microsomes): 0.0387 mL/min/mg protein; Half-Life ([5]; human, microsomes): 35.8 min; Solubility AVG [8, 13]: 269 µM (≈ 69.8 µg/mL); Solubility R1 [8, 13]: 279 µM (≈ 72.4 µg/mL); albuminuria [9]: significantly reduced albuminuria; Percent Remaining 0 min [10]: 100; Percent Remaining 30 min [10]: 88.4; Percent Remaining 60 min [10]: 92.1; Percent Remaining 120 min [10]: 87.7
3 | CSc1ccc(NC(=O)Nc2ccc(C#N)cn2)cc1 [BT502] | no observed toxicity | improved KLF15 reporter activity | improved | significantly induced KLF15 reporter activity | higher maximal KLF15 reporter activity | significantly induced KLF15 promoter activity | synergistic effect | 15.2 10^−6 cm/s | 14.6 10^−6 cm/s | 63.1 | 7.34 10^−6 cm/s | 6.35 10^−6 cm/s | 67.1 | 0.481 | No (Significant Efflux: ER ≥ 2.0 and Papp (B-to-A) ≥ 1.0 × 10^−6 cm/s) | High (Papp (A-to-B) ≥ 1.0 × 10^−6 cm/s: High) | 22.2 (≈ 6.31 µg/mL) | 21.8 (≈ 6.2 µg/mL) | 10.4 (≈ 2.96 µg/mL) | 10.4 (≈ 2.96 µg/mL) | Half-Life [5, 14]: 17 min; Percent Remaining 0 min [5, 14]: 100; Percent Remaining 10 min [5, 14]: 63.9; Percent Remaining 20 min [5, 14]: 45.3; Percent Remaining 30 min [5, 14]: 29.6; Percent Remaining 60 min [5, 14]: 8.53; CLint (intrinsic clearance) [5, 15]: 0.0813 mL/min/mg protein; KLF15 promoter activity, combination with DEX ([6]; compound 100 nM + DEX 0.5 μM): synergistic effect; Solubility AVG [8, 13]: 28.1 µM (≈ 7.99 µg/mL); Solubility R1 [8, 13]: 28.4 µM (≈ 8.08 µg/mL); albuminuria [9]: significantly reduced albuminuria; Percent Remaining 0 min [10]: 100; Percent Remaining 30 min [10]: 99.7; Percent Remaining 60 min [10]: 87; Percent Remaining 120 min [10]: 88.7
4 | CSc1ccc(NC(=O)Nc2ccc(C)nc2)cc1 [BT503] | no observed toxicity | improved KLF15 reporter activity | improved; also recorded: improve podocyte survival | significantly induced KLF15 reporter activity | higher maximal KLF15 reporter activity | significantly induced KLF15 promoter activity | synergistic effect | 10.7 10^−6 cm/s | 13.1 10^−6 cm/s | 59.7 | 9.7 10^−6 cm/s | 9.06 10^−6 cm/s | 69 | 0.909 | No (Significant Efflux: ER ≥ 2.0 and Papp (B-to-A) ≥ 1.0 × 10^−6 cm/s) | High (Papp (A-to-B) ≥ 1.0 × 10^−6 cm/s: High) | 343 (≈ 93.8 µg/mL) | 332 (≈ 90.8 µg/mL) | 17.3 (≈ 4.73 µg/mL) | 17.4 (≈ 4.76 µg/mL) | Half-Life [5, 14]: 13 min; Percent Remaining 0 min [5, 14]: 100; Percent Remaining 10 min [5, 14]: 60.1; Percent Remaining 20 min [5, 14]: 35.3; Percent Remaining 30 min [5, 14]: 18.5; Percent Remaining 60 min [5, 14]: 3.3; CLint (intrinsic clearance) [5, 15]: 0.107 mL/min/mg protein; KLF15 promoter activity, combination with DEX ([6]; compound 10 nM + DEX 0.5 μM): synergistic effect; KLF15 promoter activity, combination with DEX ([6]; compound 100 nM + DEX 0.5 μM): synergistic effect; EC50 [4]: ~7.1 nM; Solubility AVG [8, 13]: 34.5 µM (≈ 9.43 µg/mL); Solubility R1 [8, 13]: 31.6 µM (≈ 8.64 µg/mL); albuminuria [9]: significantly reduced albuminuria; Percent Remaining 0 min [10]: 100; Percent Remaining 30 min [10]: 90.6; Percent Remaining 60 min [10]: 87.6; Percent Remaining 120 min [10]: 80.5
5 | CC1(C)OB(c2ccc(C(N)=NO)cc2)OC1(C)C [BT506] | Toxicity | – | – | – | – | – | – | – | – | – | – | – | – | – | – | – | – | – | – | – | –
6 | CSc1ccc(-c2nc(-c3ccc(O)cc3)no2)cc1 [BT514] | no observed toxicity | improved KLF15 reporter activity | improved; also recorded: improve podocyte survival | significantly induced KLF15 reporter activity | – | – | – | – | – | – | – | – | – | – | – | – | – | – | – | – | –
7 | C[C@@H]1C[C@H]2[C@@H]3CCC4=CC(=O)C=C[C@]4(C)[C@@]3(F)[C@@H](O)C[C@]2(C)[C@@]1(O)C(=O)CO [DEX, dexamethasone, reference compound] | – | – | – | – | – | – | – | – | – | – | – | – | – | – | – | – | – | – | – | – | EC50 [4]: 5410 nM
